# Literature values in article PMC9516332 (Frontiers in Oncology, 2022).
# Like-named read-outs stand apart in the source and are kept apart here.
# Columns and labels:
# Conditions in all cases: cited from earlier work
# [1] = target: panel of 255 wild-type kinases (Homo sapiens, UniProt P45983)
# [2] = target: panel of 255 wild-type kinases (Homo sapiens, UniProt Q8N568)
# [3] = target: T1, panel of 255 wild-type kinases (Homo sapiens, UniProt Q9UL54)
# T1 sequence (Q9UL54 1-1235): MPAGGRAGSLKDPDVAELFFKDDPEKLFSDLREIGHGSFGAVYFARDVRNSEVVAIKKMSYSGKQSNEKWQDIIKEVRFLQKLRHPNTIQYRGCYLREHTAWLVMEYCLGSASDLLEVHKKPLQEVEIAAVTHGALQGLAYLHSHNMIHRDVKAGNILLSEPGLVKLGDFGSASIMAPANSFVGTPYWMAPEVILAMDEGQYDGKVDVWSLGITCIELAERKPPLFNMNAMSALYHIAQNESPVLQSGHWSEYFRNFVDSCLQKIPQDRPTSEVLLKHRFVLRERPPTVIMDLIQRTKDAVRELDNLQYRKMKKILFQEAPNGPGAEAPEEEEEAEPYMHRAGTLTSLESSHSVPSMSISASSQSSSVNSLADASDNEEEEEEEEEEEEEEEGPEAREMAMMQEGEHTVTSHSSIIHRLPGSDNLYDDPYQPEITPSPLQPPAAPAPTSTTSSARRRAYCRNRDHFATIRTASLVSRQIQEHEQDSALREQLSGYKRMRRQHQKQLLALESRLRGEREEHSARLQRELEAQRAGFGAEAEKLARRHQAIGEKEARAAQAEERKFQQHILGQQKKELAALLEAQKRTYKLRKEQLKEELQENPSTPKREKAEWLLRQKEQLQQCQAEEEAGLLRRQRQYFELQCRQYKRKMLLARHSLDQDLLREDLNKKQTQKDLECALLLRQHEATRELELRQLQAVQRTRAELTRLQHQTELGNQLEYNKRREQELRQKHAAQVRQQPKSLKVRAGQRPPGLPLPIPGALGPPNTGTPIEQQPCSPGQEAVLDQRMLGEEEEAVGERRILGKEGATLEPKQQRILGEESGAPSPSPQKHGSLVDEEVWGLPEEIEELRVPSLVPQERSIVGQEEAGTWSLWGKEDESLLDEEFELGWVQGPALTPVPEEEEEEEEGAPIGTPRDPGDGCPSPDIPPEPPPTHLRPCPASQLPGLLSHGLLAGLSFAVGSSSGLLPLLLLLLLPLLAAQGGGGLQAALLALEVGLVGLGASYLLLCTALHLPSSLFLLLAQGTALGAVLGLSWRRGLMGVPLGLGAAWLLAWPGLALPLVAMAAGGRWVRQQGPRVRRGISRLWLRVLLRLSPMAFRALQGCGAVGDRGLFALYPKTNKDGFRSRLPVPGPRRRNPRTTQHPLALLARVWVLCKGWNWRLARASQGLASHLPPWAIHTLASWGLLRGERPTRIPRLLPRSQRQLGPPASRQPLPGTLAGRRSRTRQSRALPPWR
# [4] = target: T2, panel of 255 wild-type kinases (Homo sapiens, UniProt Q8TD19)
# T2 sequence (Q8TD19 1-979): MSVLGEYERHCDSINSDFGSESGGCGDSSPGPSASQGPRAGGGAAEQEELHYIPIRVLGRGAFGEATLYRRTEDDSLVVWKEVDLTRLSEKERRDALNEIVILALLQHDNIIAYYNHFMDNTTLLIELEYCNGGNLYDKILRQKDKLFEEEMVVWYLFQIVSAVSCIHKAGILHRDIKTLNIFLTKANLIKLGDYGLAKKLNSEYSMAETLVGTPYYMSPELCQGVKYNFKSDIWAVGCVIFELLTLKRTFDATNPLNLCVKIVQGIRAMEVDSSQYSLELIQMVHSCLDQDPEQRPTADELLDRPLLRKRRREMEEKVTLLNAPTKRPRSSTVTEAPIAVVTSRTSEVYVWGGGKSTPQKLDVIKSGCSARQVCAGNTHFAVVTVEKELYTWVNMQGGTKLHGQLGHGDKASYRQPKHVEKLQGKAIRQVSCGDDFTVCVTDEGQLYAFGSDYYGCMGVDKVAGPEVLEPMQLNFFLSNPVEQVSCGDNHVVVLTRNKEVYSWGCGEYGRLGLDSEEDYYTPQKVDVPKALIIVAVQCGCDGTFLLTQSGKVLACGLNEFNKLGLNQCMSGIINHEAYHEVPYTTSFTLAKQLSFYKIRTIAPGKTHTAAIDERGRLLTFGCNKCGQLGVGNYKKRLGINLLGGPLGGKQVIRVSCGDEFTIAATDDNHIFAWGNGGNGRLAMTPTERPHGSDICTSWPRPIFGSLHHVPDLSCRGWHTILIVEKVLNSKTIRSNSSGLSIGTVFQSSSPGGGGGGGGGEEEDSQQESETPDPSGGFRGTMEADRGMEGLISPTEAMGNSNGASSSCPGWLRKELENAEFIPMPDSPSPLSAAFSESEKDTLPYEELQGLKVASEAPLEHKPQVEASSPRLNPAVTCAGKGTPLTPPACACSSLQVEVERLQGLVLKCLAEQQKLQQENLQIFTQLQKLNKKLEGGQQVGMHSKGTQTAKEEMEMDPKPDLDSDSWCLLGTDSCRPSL
# [5] = target: panel of 255 wild-type kinases (Homo sapiens, UniProt P21802)
# [6] = target: panel of 255 wild-type kinases (Homo sapiens, UniProt Q9NYY3)
# [7] = kinase JNK1, 1 µmol/L single concentration, ref DOI: 10.1158/1535-7163.MCT-18-0877
# [8] = kinase DCAMKL2, 1 µmol/L single concentration, ref DOI: 10.1158/1535-7163.MCT-18-0877
# [9] = kinase TAOK2, 1 µmol/L single concentration, ref DOI: 10.1158/1535-7163.MCT-18-0877
# [10] = NEK9, 1 µmol/L single concentration, ref DOI: 10.1158/1535-7163.MCT-18-0877
# [11] = kinase FGFR2, 1 µmol/L single concentration, ref DOI: 10.1158/1535-7163.MCT-18-0877
# [12] = kinase PLK2, 1 µmol/L single concentration, ref DOI: 10.1158/1535-7163.MCT-18-0877
# [13] = kinase JNK1, 1 µmol/L single concentration, ref DOI: 10.1371/journal.pone.0092146
# [14] = kinase DCAMKL2, 1 µmol/L single concentration, ref DOI: 10.1371/journal.pone.0092146
# [15] = kinase TAOK2, 1 µmol/L single concentration, ref DOI: 10.1371/journal.pone.0092146
# [16] = NEK9, 1 µmol/L single concentration, ref DOI: 10.1371/journal.pone.0092146
# [17] = kinase FGFR2, 1 µmol/L single concentration, ref DOI: 10.1371/journal.pone.0092146
# [18] = kinase PLK2, 1 µmol/L single concentration, ref DOI: 10.1371/journal.pone.0092146
Structure (SMILES),"%-inhibition at 1 µmol/L, JNK1 [1, 7]","%-inhibition at 1 µmol/L, DCAMKL2 [2, 8]","%-inhibition at 1 µmol/L, TAOK2 [3, 9]","%-inhibition, NEK9 [4, 10]","%-inhibition at 1 µmol/L, FGFR2 [5, 11]","%-inhibition at 1 µmol/L, PLK2 [6, 12]","%-inhibition at 1 µmol/L, DCAMKL2 [2, 14]","%-inhibition at 1 µmol/L, TAOK2 [3, 15]","%-inhibition, NEK9 [4, 16]","%-inhibition at 1 µmol/L, FGFR2 [5, 17]","%-inhibition at 1 µmol/L, PLK2 [6, 18]",also measured
CC#CC(=O)N1CCC[C@H]1c1nc(-c2ccc(C(=O)Nc3ccccn3)cc2)c2c(N)nccn12 [acalabrutinib],-0.882%,4.63%,5.31%,-3.18%,-6%,2.47%,,,,,,
CCc1cc2c(cc1N1CCC(N3CCOCC3)CC1)C(C)(C)c1[nH]c3cc(C#N)ccc3c1C2=O [alectinib],3.24%,7%,5.52%,0.368%,2%,6%,,,,,,
COc1cc(N2CCC(N3CCN(C)CC3)CC2)ccc1Nc1ncc(Cl)c(Nc2ccccc2P(C)(C)=O)n1 [brigatinib],,,,,,,,,,,,"%-inhibition at 1 µmol/L, JNK1 [1]: 40%; %-inhibition at 1 µmol/L, DCAMKL2 [2]: 52%; %-inhibition at 1 µmol/L, TAOK2 [3]: 16%; %-inhibition, NEK9 [4]: 70%; %-inhibition at 1 µmol/L, FGFR2 [5]: 97%; %-inhibition at 1 µmol/L, PLK2 [6]: 0.275%"
Cc1cc(Nc2ncc(Cl)c(Nc3ccccc3S(=O)(=O)C(C)C)n2)c(OC(C)C)cc1C1CCNCC1 [ceritinib],9%,85%,7%,9%,15%,-3.54%,,,,,,
O=C(c1ccc(F)c(F)c1Nc1ccc(I)cc1F)N1CC(O)([C@@H]2CCCCN2)C1 [cobimetinib],-3%,-9%,5.42%,-2.32%,-2.8%,-0.309%,,,,,,
C[C@@H](Oc1cc(-c2cnn(C3CCNCC3)c2)cnc1N)c1c(Cl)ccc(F)c1Cl [crizotinib],,,,,,,49%,33%,57%,27%,1.1%,"%-inhibition at 1 µmol/L, JNK1 [1, 13]: 0.431%"
CC(C)(C)c1nc(-c2cccc(NS(=O)(=O)c3c(F)cccc3F)c2F)c(-c2ccnc(N)n2)s1 [dabrafenib],,,,,,,19%,34%,101%,4%,-4.64%,"%-inhibition at 1 µmol/L, JNK1 [1, 13]: -1.12%"
C=CC(=O)N1CCC[C@@H](n2nc(-c3ccc(Oc4ccccc4)cc3)c3c(N)ncnc32)C1 [ibrutinib],-2.33%,-9%,5%,-3.28%,81%,1.72%,,,,,,
CO[C@@H]1[C@H](N(C)C(=O)c2ccccc2)C[C@H]2O[C@]1(C)n1c3ccccc3c3c4c(c5c6ccccc6n2c5c31)C(=O)NC4 [midostaurin],9%,8%,9%,48%,97%,2.68%,,,,,,
C=CC(=O)Nc1cc(Nc2nccc(-c3cn(C)c4ccccc34)n2)c(OC)cc1N(C)CCN(C)C [osimertinib],-2.12%,-7%,7%,9%,5.56%,1.06%,,,,,,
CC(=O)Nc1cccc(-n2c(=O)n(C3CC3)c(=O)c3c(Nc4ccc(I)cc4F)n(C)c(=O)c(C)c32)c1 [trametinib],,,,,,,-2.4%,-2.59%,-3%,-2.64%,-1.65%,"%-inhibition at 1 µmol/L, JNK1 [1, 13]: -4.68%"
CCCS(=O)(=O)Nc1ccc(F)c(C(=O)c2c[nH]c3ncc(-c4ccc(Cl)cc4)cc23)c1F [vemurafenib],,,,,,,-3.52%,5.35%,-2.2%,10%,-1.85%,"%-inhibition at 1 µmol/L, JNK1 [1]: 1.47%"
